From US5514694A, “Peptidyl ketoamides” (Georgia Tech Research Corp, priority 1993, dated 1996) come the findings set out here.

This experiment has as its target T1, Calpain I from human erythrocytes (Homo sapiens, UniProt P07384).
T1 construct: Calpain I was purified from human erythrocytes; from tissue; host or cells: human erythrocytes
T1 sequence (P07384 1-714): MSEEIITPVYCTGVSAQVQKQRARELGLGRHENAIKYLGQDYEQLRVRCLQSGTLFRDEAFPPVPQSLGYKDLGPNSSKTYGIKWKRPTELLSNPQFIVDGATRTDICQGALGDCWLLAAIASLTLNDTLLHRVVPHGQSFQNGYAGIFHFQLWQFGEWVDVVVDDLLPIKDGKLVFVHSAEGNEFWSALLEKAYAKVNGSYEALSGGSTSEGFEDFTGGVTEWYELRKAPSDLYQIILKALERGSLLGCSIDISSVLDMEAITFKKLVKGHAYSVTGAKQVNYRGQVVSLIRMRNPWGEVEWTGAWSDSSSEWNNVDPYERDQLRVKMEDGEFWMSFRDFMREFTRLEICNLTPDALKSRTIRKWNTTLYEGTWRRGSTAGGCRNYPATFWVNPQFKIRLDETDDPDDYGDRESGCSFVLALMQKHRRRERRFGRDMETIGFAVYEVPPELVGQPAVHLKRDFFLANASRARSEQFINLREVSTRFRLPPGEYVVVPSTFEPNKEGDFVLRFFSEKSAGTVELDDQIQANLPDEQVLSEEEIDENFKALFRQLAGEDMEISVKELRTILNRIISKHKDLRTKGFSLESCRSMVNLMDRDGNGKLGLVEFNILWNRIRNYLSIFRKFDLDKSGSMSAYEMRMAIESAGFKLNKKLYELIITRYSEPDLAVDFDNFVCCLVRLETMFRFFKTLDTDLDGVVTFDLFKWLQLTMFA
T1 sequence (P04632 1-268 partner): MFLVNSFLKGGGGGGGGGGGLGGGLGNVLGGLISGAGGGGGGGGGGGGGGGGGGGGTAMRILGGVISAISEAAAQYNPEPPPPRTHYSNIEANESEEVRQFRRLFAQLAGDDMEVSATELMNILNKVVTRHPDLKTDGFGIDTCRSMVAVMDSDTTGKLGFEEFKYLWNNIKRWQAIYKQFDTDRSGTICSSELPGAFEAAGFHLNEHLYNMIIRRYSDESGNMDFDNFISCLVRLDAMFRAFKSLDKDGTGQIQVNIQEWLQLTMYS
The experiment in a line: Calpain I inhibition, Suc-Leu-Tyr-AMC hydrolysis (KI). The experiment is classed as biochemical. As to conditions: read-out: KI Cal I. As for the experimental part:
HEPES, heparin, and A23187 were obtained from Calbiochem. Suc-Leu-Tyr-AMC and chromogenic substrates were obtained from Sigma. Calpain I was purified from human erythrocytes according to the method of Kitahara (Kitahara et al., J. Biochem. 95, 1759-1766) omitting the Blue-Sepharose step. Calpain II from rabbit muscle and cathepsin B were purchased from Sigma. Papain was purchased from Calbiochem.
Peptide α-ketoamides were assayed as reversible enzyme inhibitors. Various concentrations of inhibitors in Me2 SO were added to the assay mixture which contained buffer and substrate. The reaction was started by the addition of the enzyme and the hydrolysis rates were followed spectrophotometrically or fluorimetrically.
Calpain I from human erythrocytes and calpain II from rabbit were assayed using Suc-Leu-Tyr-AMC Sasaki et al., J. Biol. Chem. 259, 12489-12494 (1984); incorporated herein by reference!, and the AMC (7-amino-4-methylcoumarin) release was followed fluorimetrically (excitation at 380 nm, and emmision at 460 nm). Calpains were assayed in 25 mM Tris pH=8.0, 10 mM CaC12. Fluorescence was followed using a Gilson FL-1A fluorometer or a Perkin-Elmer 203 Fluorescence spectrometer. Cathepsin B was assayed in 20 mM sodium acetate pH=5.2, 0.5 mM dithiothreitol using Bz-Phe-Val-Arg-p-nitroanilide as substrate. Alternately, cathepsin B was assayed with Z-Arg-Arg-AFC Barrett and Kirschke, Methods Enzymol. 80, 535-561 (1981); incorporated herein by reference!, and the AFC (7-amino-4-trifluoromethylcoumarin) release was followed fluorimetrically (excitation at 400 nm and emmision at 505 nm). Papain was assayed in 100 mM KPO4, 1 mM EDTA, 2.5 mM cysteine pH=6.0 using Bz-Arg-AMC or Bz-Arg-NA Kanaoka et al., Chem. Pharm. Bull. 25, 3126-3128 (1977); incorporated herein by reference! as a substrate. The AMC (7-amino-4-methylcoumarin) release was followed fluorimetrically (excitation at 380 nm, and emmision at 460 nm). Enzymatic hydrolysis rates were measured at various substrate and inhibitor concentrations, and KI values were determined by either Lineweaver-Burk plots or Dixon plots.
A 0.1M Hepes, 0.5M NaCl, pH 7.5 buffer was utilized for human leukocyte elastase (HLE), porcine pancreatic elastase (PPE), chymotrypsin and cathepsin G. A 0.1 Hepes, 0.01 M CaCl2, pH 7.5 buffer was utilized for trypsin, plasmin, and coagulation enzymes. A 50 mM Tris.HCl, 2 mM EDTA, 5 mM cysteine, pH 7.5 was used as a buffer for papain. A 88 mM KH2 PO4, 12 mM Na2 HPO4, 1.33 mM EDTA, 2.7 mM cysteine, pH 6.0 solution was used as a buffer for cathepsin B. A 20 mM Hepes, 10 mM CaCl2, 10 mM mercatoethanol, pH 7.2 buffer was utilized for calpain I and calpain II.

Setting [1] is: Table 2, Z-Leu--AA--CONH--CH2 CH(OH)-R.

Like-named read-outs stand apart in the source and are kept apart here.

Regarding `CCNC(=O)C(=O)C(CC)NC(=O)C(CC(C)C)NC(=O)c1nccc2ccccc12` (stereo not drawn) [1-isoquinolinyl-CO-Leu-Abu-CONH-Et, 1-Isoquinolinyl-CO-Leu-Abu-CONHEt], under “Table 3, M1 CO-Leu--AA--CONH-R”, the Ki turned out to be 350 nM.

As for `CCNC(=O)C(=O)C(CC)NC(=O)C(CC(C)C)NC(=O)c1ccco1` (stereo not drawn) [2-furyl-CO-Leu-Abu-CONH-Et, 2-Furyl-CO-Leu-Abu-CONHEt], for the setting “Table 3, M1 CO-Leu--AA--CONH-R”, the Ki turned out to be 850 nM.

With `CCNC(=O)C(=O)C(CC)NC(=O)C(CC(C)C)NC(=O)c1cnccn1` (stereo not drawn) [2-pyrazinyl-CO-Leu-Abu-CONH-Et, 2-Pyrazinyl-CO-Leu-Abu-CONHEt], the Ki (Table 3, M1 CO-Leu--AA--CONH-R) was 300 nM.

`CCNC(=O)C(=O)C(CC)NC(=O)C(CC(C)C)NC(=O)C1CCCO1` (stereo not drawn) [2-tetrahydrofuryl-CO-Leu-Abu-CONH-Et, 2-Tetrahydrofuryl-CO-Leu-Abu-CONHEt]: under “Table 3, M1 CO-Leu--AA--CONH-R”, the Ki worked out at 18500 nM.

Regarding `CCNC(=O)C(=O)C(CC)NC(=O)C(CC(C)C)NC(=O)c1cccnc1` (stereo not drawn) [3-pyridyl-CO-Leu-Abu-CONH-Et, 3-Pyridyl-CO-Leu-Abu-CONHEt], where the note is “Table 3, M1 CO-Leu--AA--CONH-R”, the Ki is 1300 nM.

For `CCNC(=O)C(=O)C(CC)NC(=O)C(CC(C)C)NC(=O)N1CCOCC1` (stereo not drawn) [4-morpholinyl-CO-Leu-Abu-CONH-Et, 4-Morpholinyl-CO-Leu-Abu-CONHEt], where the note is “Table 3, M1 CO-Leu--AA--CONH-R”, the inhibition constant Ki was 7900 nM.

In the case of `CCNC(=O)C(=O)[C@H](CC)NC(=O)[C@H](CC(C)C)NC(=O)CCC(=O)OC` [CH3 OCO(CH2)2-CO-Leu-Abu-CONH-Et, CH3 OCO(CH2)2 CO-Leu-Abu-CONHEt], the Ki (Table 3, M1 CO-Leu--AA--CONH-R) turned out to be 3800 nM.

Regarding `CCC(NC(=O)C(CC(C)C)NC(=O)C(c1ccccc1)c1ccccc1)C(=O)C(=O)NCC(O)c1ccccc1` (stereo not drawn) [Ph2 CH-CO-Leu-Abu-CONH-CH2 CH(OH)Ph, Ph2 CHCO-Leu-Abu-CONH--CH2 CH(OH)Ph], for the setting “Table 3, M1 CO-Leu--AA--CONH-R”, the inhibitory constant (Ki) is 750 nM.

For the compound `CCC(NC(=O)C(CC(C)C)NC(=O)OCc1ccccc1)C(=O)C(=O)NCCCN1CCCc2ccccc21` (stereo not drawn) [Z-Leu-Abu-CONH--(CH2)3 -1-Tetrahydroquinolinyl], the Ki (Table 1, Z-Leu--AA--CONHR) is 370 nM.

As for `CCC(NC(=O)C(CC(C)C)NC(=O)OCc1ccccc1)C(=O)C(=O)NCC(O)c1cccc(Oc2ccc(Cl)c(Cl)c2)c1` (stereo not drawn) [Z-Leu-Abu-CONH--CH2 CH(OH)C6 H4 -3-OC6 H3 (3,4-Cl2)], under setting [1], the Ki was found to be 270 nM.

Turning to `CCC(NC(=O)C(CC(C)C)NC(=O)OCc1ccccc1)C(=O)C(=O)NCc1nc(C)cs1` (stereo not drawn) [Z-Leu-Abu-CONH-CH2 -2-(4-methylthiazole), Z-Leu-Abu-CONH--CH2 -2-(4-Methyl-2-thiazolyl)], the Ki (Table 1, Z-Leu--AA--CONHR) turned out to be 34000 nM.

Turning to `CCC(NC(=O)[C@H](CC(C)C)NC(=O)OCc1ccccc1)C(=O)C(=O)NCc1ccc2ccccc2n1` (stereo partly drawn) [Z-Leu-Abu-CONH-CH2 -2-quinolinyl, Z-Leu-Abu-CONH--CH2 -2-Quinolinyl], the Ki (Table 1, Z-Leu--AA--CONHR) came to 130 nM.

Turning to `CCC(NC(=O)C(CC(C)C)NC(=O)OCc1ccccc1)C(=O)C(=O)NCc1ccc[n+]([O-])c1` (stereo not drawn) [Z-Leu-Abu-CONH-CH2 -3-pyridyl-N-oxide, Z-Leu-Abu-CONH--CH2 -3-Pyridyl-N-oxide], the Ki (Table 1, Z-Leu--AA--CONHR) came to 9500 nM.

For the compound `CCC(NC(=O)C(CC(C)C)NC(=O)OCc1ccccc1)C(=O)C(=O)NCc1cc(=O)[nH]c(=O)[nH]1` (stereo not drawn) [Z-Leu-Abu-CONH-CH2 -6-uracil, Z-Leu-Abu-CONH--CH2 -6-Uracil], the Ki (Table 1, Z-Leu--AA--CONHR) came to 9000 nM.

For `CCC(NC(=O)C(CC(C)C)NC(=O)OCc1ccccc1)C(=O)C(=O)NCC(O)c1cccc2ccccc12` (stereo not drawn) [Z-Leu-Abu-CONH-CH2 CH(OH)-1-C10 H7, Z-Leu-Abu-CONH--CH2 CH(OH)-1-C10 H7], the Ki under setting [1] worked out at 120 nM.

As to `CCC(NC(=O)C(CC(C)C)NC(=O)OCc1ccccc1)C(=O)C(=O)NCC(O)c1ccc2ccccc2c1` (stereo not drawn) [Z-Leu-Abu-CONH-CH2 CH(OH)-2-C10 H7, Z-Leu-Abu-CONH--CH2 CH(OH)-2-C10 H7], under setting [1], the Ki stood at 350 nM.

Take `CC(C)CC(NC(=O)OCc1ccccc1)C(=O)NC(Cc1ccccc1)C(=O)C(=O)NCCNC(=O)CCCCC1SCC2NC(=O)NC21` (stereo not drawn) [Z-Leu-Phe-CONH-(CH2)2 NH-biotinyl, Z-Leu-Phe-CONH--(CH2)2 NH-Biotinyl]: under “Table 1, Z-Leu--AA--CONHR”, the Ki came to 220 nM.

On to `CC(C)CC(NC(=O)OCc1ccccc1)C(=O)NC(Cc1ccccc1)C(=O)C(=O)NCCCN1CCCc2ccccc21` (stereo not drawn) [Z-Leu-Phe-CONH--(CH2)3-1-Tetrahydroquinolinyl], for which, under “Table 1, Z-Leu--AA--CONHR”, the Ki turned out to be 380 nM.

Turning to `CC(C)CC(NC(=O)OCc1ccccc1)C(=O)NC(Cc1ccccc1)C(=O)C(=O)NCCCN1CCc2ccccc2C1` (stereo not drawn) [Z-Leu-Phe-CONH--(CH2)3-2-Tetrahydroisoquinolinyl], where the note is “Table 1, Z-Leu--AA--CONHR”, the Ki turned out to be 220 nM.

With `CC(C)CC(NC(=O)OCc1ccccc1)C(=O)NC(Cc1ccccc1)C(=O)C(=O)NCC(O)c1cccc(Oc2ccc(Cl)c(Cl)c2)c1` (stereo not drawn) [Z-Leu-Phe-CONH--CH2 CH(OH)C6 H4 -3-OC6 H3 (3,4-Cl2)], the Ki under setting [1] came to 590 nM.

Consider `CC(C)CC(NC(=O)OCc1ccccc1)C(=O)NC(Cc1ccccc1)C(=O)C(=O)NCC(O)c1c(F)c(F)c(F)c(F)c1F` (stereo not drawn) [Z-Leu-Phe-CONH-CH2 CH(OH)-C6 F5, Z-Leu-Phe-CONH--CH2 CH(OH)C6 F5], for which the Ki under setting [1] was found to be 700 nM.

For the compound `CC(C)CC(NC(=O)OCc1ccccc1)C(=O)NC(Cc1ccccc1)C(=O)C(=O)NCC(O)c1cccc(Oc2ccccc2)c1` (stereo not drawn) [Z-Leu-Phe-CONH-CH2 CH(OH)-C6 H4 (3-OPh), Z-Leu-Phe-CONH--CH2 CH(OH)C6 H4 (3-OPh)], the Ki under setting [1] worked out at 600 nM.

As for “Ph2 CHCO-Leu-Abu-CONHEt [Ph2 CH-CO-Leu-Abu-CONH-Et]”, under “Table 3, M1 CO-Leu--AA--CONH-R”, the Ki was found to be 5000 nM.

For the compound “Z-Leu-Abu-CONH--CH2 CH(OH)C6 H2 (2,4,6-(OCH3)3)”, under setting [1], the Ki came to 380 nM.

Take “Z-Leu-Phe-CONH--CH2 CH(OH)C6 H4 (3-CF3) [Z-Leu-Phe-CONH-CH2 CH(OH)-C6 H4 (3-CF3)]”: under setting [1], the Ki amounted to 460 nM.
